Assay results from patent US20170320848A1, “COMPOUNDS FOR USE IN ANTHELMINTHIC TREATMENT” (Bayer Animal Health GMBH, priority 2014, published 2017).
Like-named read-outs stand apart in the source and are kept apart here.

Experiments:
[1] = Measurement of LogP values by HPLC on reversed phase columns (EEC directive 79/831 Annex V.A8); format: physicochemical; conditions: for chromatographic logP: reversed phase HPLC columns
[2] = tested on: Meloidogyne incognita; assay: Meloidogyne incognita assay (MELGIN), gall formation on salad seedlings; format: in vivo; conditions: application rate 20 ppm, after 14 days
Description: Meloidogyne Incognita—Assay (MELGIN)
Solvent: 125.0 parts by weight of acetone
To produce a suitable preparation, 1 part by weight of active compound is mixed with the stated amount of solvent, and the concentrate is diluted with water to the desired concentration.
Vessels are filled with sand, a solution of the active ingredient, a suspension containing eggs and larvae of the southern root-knot nematode (Meloidogyne incognita) and salad seeds. The salad seeds germinate and the seedlings grow. Galls develop in the roots.
After 14 days the nematicidal activity is determined on the basis of the percentage of gall formation. 100% means no galls were found and 0% means the number of galls found on the roots of the treated plants was equal to that in untreated control plants.

[3] = tested on: Cooperia curticei; assay: Cooperia curticei assay (COOPCU), larval mortality; format: cell-based; conditions: application rate 20 ppm, after 5 days; for mortality at 20 ppm: Cooperia curticei, 120 h, read-out: activity (percentage of larval mortality)
Description: Cooperia Curticei—Assay (COOPCU)
Solvent: dimethyl sulfoxide
To produce a suitable preparation, 10 mg of active compound are dissolved in 0.5 ml solvent, and the concentrate is diluted with “Ringer's solution” to the desired concentration.
Approximately 40 nematode larvae (Cooperia curticei) are transferred into a test tube containing the compound solution.
After 5 days percentage of larval mortality is recorded. 100% efficacy means all larvae are killed; 0% efficacy means no larvae are killed.

[4] = acidic range, 0.1% formic acid in water and acetonitrile as eluent
[5] = acidic range, 0.1% formic acid in water and acetonitrile as eluent, read-out: logP (HCOOH)[a]

Row | Compound | logP (HCOOH)[a] [1, 4] | nematicidal activity (percentage of gall formation) [2] [%] | also measured
1 | O=C(NCC(F)(F)c1ccc(-c2ccc(F)cc2)cc1Cl)c1nccnc1C(F)(F)F [Example 61] | 3.85 | 100 | –
2 | CNc1ccc(-c2ccc(C(F)(F)CNC(=O)c3ccccc3C(F)(F)F)c(Cl)c2)cc1 [Example 29] | – | – | chromatographic logP [1, 5]: 3.59; mortality at 20 ppm [3]: 80%
3 | COc1cc(-c2ccc(C(F)F)cc2)ccc1C(F)(F)CNC(=O)c1ccccc1C(F)(F)F [Example 91] | 3.81 | – | activity (percentage of larval mortality) [3]: 80%
4 | O=C(NCC(F)(F)c1ccc(-c2cc(F)c(F)c(F)c2)cc1Cl)c1ccccc1Cl [Example 115] | 4.23 | 100 | –
5 | O=C(NCC(F)(F)c1ccc(-c2ccc(F)cc2)cc1Cl)c1cccnc1I [Example 64] | 3.56 | 100 | –
6 | N#Cc1cc(-c2cccc(C(F)F)c2)ccc1C(F)(F)CNC(=O)c1ccccc1C(F)(F)F [Example 79] | 3.59 | – | activity (percentage of larval mortality) [3]: 80%
7 | Cc1cc(-c2cc(F)c(F)c(F)c2)ccc1C(F)(F)CNC(=O)c1ccccc1C(F)(F)F [Example 109] | 4.48 | 100 | –
8 | N#Cc1cc(-c2ccc(F)cc2)ccc1C(F)(F)CNC(=O)c1ccccc1C(F)(F)F [Example 74] | 3.63 | – | activity (percentage of larval mortality) [3]: 90%
9 | O=C(NCC(F)(F)c1ccc(-c2ccc(OC(F)F)cc2)cc1Cl)c1ccccc1C(F)(F)F [Example 68] | 4.03 | 100 | –
10 | Cc1cc(-c2ccc(F)c(Cl)c2)ccc1C(F)(F)CNC(=O)c1ccccc1C(F)(F)F [Example 124] | 4.56 | 100 | –
11 | Cc1cc(-c2ccc(F)cc2F)ccc1C(F)(F)CNC(=O)c1ccccc1C(F)(F)F [Example 119] | 4.15 | 100 | –
12 | Cc1cc(-c2cccc(Cl)c2)ccc1C(F)(F)CNC(=O)c1ccccc1C(F)(F)F [Example 123] | 4.56 | 100 | –
13 | COc1cc(-c2ccc(C(F)(F)F)cc2)ccc1C(F)(F)CNC(=O)c1ccccc1C(F)(F)F [Example 87] | 4.33 | – | activity (percentage of larval mortality) [3]: 90%
14 | N#Cc1cc(-c2ccc(C(F)(F)CNC(=O)c3ccccc3C(F)(F)F)c(Cl)c2)ccc1Cl [Example 95] | 4.07 | 100 | –
15 | CN(C)c1ccc(-c2ccc(C(F)(F)CNC(=O)c3ccccc3C(F)(F)F)c(C(F)(F)F)c2)cc1 [Example 10] | – | – | mortality at 20 ppm [3]: 80%
16 | O=C(NCC(F)(F)c1ccc(-c2ccc(N3CCCC3)cc2)cc1Cl)c1ccccc1C(F)(F)F [Example 78] | 5.08 | – | activity (percentage of larval mortality) [3]: 90%
17 | COc1cc(-c2ccc(C#N)cc2)ccc1C(F)(F)CNC(=O)c1ccccc1C(F)(F)F [Example 51] | 3.43 | – | activity (percentage of larval mortality) [3]: 90%
18 | O=C(NCC(F)(F)c1ccc(-c2cccc(C(F)F)c2)cc1Cl)c1ccccc1C(F)(F)F [Example 43] | 4.03 | 100 | –
19 | O=C(NCC(F)(F)c1ccc(-c2cc(F)c(F)c(F)c2)cc1Cl)c1ncccc1C(F)(F)F [Example 112] | 4.23 | 100 | –
20 | O=C(NCC(F)(F)c1ccc(-c2ccc(F)cc2)cc1Cl)c1c(F)cccc1F [Example 60] | 3.85 | 100 | –
21 | O=C(NCC(F)(F)c1ccc(-c2ccc(F)cc2)cc1Cl)c1ncccc1C(F)(F)F [Example 62] | 4.05 | 100 | –
22 | Cc1cc(-c2ccc(C#N)cc2)ccc1C(F)(F)CNC(=O)c1ccccc1C(F)(F)F [Example 49] | 3.7 | 100 | –

Row | Compound | logP (HCOOH)[a] [1, 4] | nematicidal activity (percentage of gall formation) [2] [%] | also measured
23 | CN(C)c1ccc(-c2ccc(C(F)(F)CNC(=O)c3ccccc3C(F)(F)F)c(Cl)c2)cc1 [Example 28] | – | – | chromatographic logP [1, 5]: 4.28; mortality at 20 ppm [3]: 80%
24 | O=C(NCC(F)(F)c1ccc(-c2ccc(C(F)F)cc2)cc1Cl)c1ccccc1C(F)(F)F [Example 40] | 3.99 | – | –
25 | CN1CCN(c2ccc(-c3ccc(C(F)(F)CNC(=O)c4ccccc4C(F)(F)F)c(Cl)c3)cc2)CC1 [Example 84] | 1.84 | – | –
26 | O=C(NCC(F)(F)c1ccc(-c2ccc(F)cc2)cc1Cl)c1ccccc1Cl [Example 59] | 4.0 | – | –
27 | COc1ccc(-c2ccc(C(F)(F)CNC(=O)c3ccccc3C(F)(F)F)c(F)c2)cc1 [Example 6] | – | – | mortality at 20 ppm [3]: 80%
28 | O=C(NCC(F)(F)c1ccc(-c2cc(F)c(Cl)c(F)c2)cc1Cl)c1ccccc1C(F)(F)F [Example 110] | 4.77 | – | –
29 | O=C(NCC(F)(F)c1ccc(-c2cc(F)c(OC(F)F)c(F)c2)cc1Cl)c1ccccc1C(F)(F)F [Example 66] | 4.20 | – | –
30 | O=C(NCC(F)(F)c1c(F)cc(-c2ccc(OC(F)(F)F)cc2)cc1F)c1ccccc1C(F)(F)F [Example 48] | 4.56 | – | –
31 | O=C(NCC(F)(F)c1ccc(-c2ccc([S+]([O-])C(F)(F)F)cc2)cc1Cl)c1ccccc1C(F)(F)F (stereo not shown) [Example 56] | 3.87 | – | –
32 | O=C(NCC(F)(F)c1ccc(-c2ccc(F)cc2)cc1C(F)(F)F)c1nccnc1C(F)(F)F [Example 52] | – | 100 | –
33 | O=C(NCC(F)(F)c1ccc(-c2cc(F)c(F)c(F)c2)cc1Cl)c1nccnc1C(F)(F)F [Example 111] | 4.05 | – | –
34 | Cc1cc(-c2ccc(C(F)F)cc2)ccc1C(F)(F)CNC(=O)c1ccccc1C(F)(F)F [Example 80] | 4.06 | – | –
35 | NCC(F)(F)c1ccc(-c2ccc(F)cc2)cc1Cl [Example VII-1, 2-[2-chloro-4-(4-fluorophenyl)phenyl]-2,2-difluoro-ethanamine] | – | – | chromatographic logP [1, 5]: 1.35; chromatographic logP ([1]; neutral range, 0.001 molar ammonium acetate solution in water and acetonitrile as eluent, read-out: LogP[b]): 3.1
36 | O=C(NCC(F)(F)c1ccc(-c2cccc(C(F)(F)F)c2)cc1Cl)c1ccccc1C(F)(F)F [Example 67] | 4.55 | – | –
37 | N#Cc1cc(-c2ccc(C(F)(F)CNC(=O)c3ccccc3C(F)(F)F)c(Cl)c2)ccc1F [Example 96] | 3.81 | – | –
38 | O=C(NCC(F)(F)c1ccc(-c2cc(F)cc(F)c2)cc1F)c1ccccc1C(F)(F)F [Example 101] | – | 100 | –
39 | O=C(NCC(F)(F)c1ccc(-c2ccc(C(F)(F)F)cc2)cc1Cl)c1ccccc1C(F)(F)F [Example 41] | 4.56 | – | –
40 | O=C(NCC(F)(F)c1ccc(-c2ccc(F)cc2)cc1Cl)c1ccccc1I [Example 57] | 4.17 | – | –
41 | Cc1cc(-c2ccc(OC(F)(F)F)cc2)ccc1C(F)(F)CNC(=O)c1ccccc1C(F)(F)F [Example 76] | 4.68 | – | –
42 | CC(=O)Nc1ccc(-c2ccc(C(F)(F)CNC(=O)c3ccccc3C(F)(F)F)c(Cl)c2)cc1 [Example 30] | – | – | chromatographic logP [1, 5]: 2.93
43 | CS(=O)(=O)c1ccc(-c2ccc(C(F)(F)CNC(=O)c3ccccc3C(F)(F)F)c(Cl)c2)cc1 [Example 24] | – | – | chromatographic logP [1, 5]: 2.99
44 | O=C(NCC(F)(F)c1ccc(-c2ccc(Cl)cc2)cc1C(F)(F)F)c1nccnc1C(F)(F)F [Example 53] | – | 100 | –
